Results published in patent US10196403B2, “Compounds and compositions and uses thereof” (Sunovion Pharmaceuticals Inc., priority 2016, dated 2019).
Like-named read-outs stand apart in the source and are kept apart here.

Columns and labels:
Assay type in all cases: in vivo
Adult male AJ mice = test: Tail suspension test (TST); conditions: oral gavage 30 min before test; time immobile
Source text: The tail suspension test (TST) is a rodent screening test for potential (human) antidepressant drugs. It is based on the assumption that an animal will actively try to escape an aversive (stressful) stimulus. If escape is impossible, the animal will eventually stop trying (“give up”). In the TST, a mouse is suspended by the tail so that its body dangles in the air, head downward. Mice initially struggle to face upward and climb to a solid surface. When the animal stops struggling and hangs immobile it is considered to have “given up”. Shorter periods of immobility are characteristic of antidepressant-like activity. Accordingly, longer periods of immobility are considered indicative of a depressive-like state. It has been shown that treatment with an antidepressant drug will decrease the time the animal spends immobile. See generally L. Stem et al., Psychopharmacology (Berl). 1985; 85(3):367-70; B. Thierry et al., Psychopharmacology 1986; 90:284-85.
Procedure. Adult male AJ mice from Jackson Laboratories received vehicle (sterile water) or test compound orally by gavage, or the positive control desipramine (20 mg/kg, i.p.), in 10 mL/kg injection volumes, 30 min before being subjected to the Tail Suspension Test. In this test, mice are placed in the Tail Suspension chambers (white polyvinylchloride cubicles measuring 33×33×31.75 cm Med Associates, Inc. St. Albans, Vt.) by a piece of transparent (Scotch®) tape attached to the tail, from about the mid-tail, with approximately 2 cm of tape past the end of the tail for 10 min during which the time spent immobile is measured. A reduction in total time immobile relative to the vehicle condition indicates an antidepressant drug-like response.

mice = test: Neuropharmacological Assay (SmartCube); conditions: for minimal effective dose: Mus musculus, read-out: POTENCY (minimal effective dose, MED); for AD: ADHD (SmartCube probability) / AG: analgesic (SmartCube probability) / AX: anxiolytic (SmartCube probability) / CE: cognitive enhancer (SmartCube probability) / DP: anti-depressant (SmartCube probability) / MS: mood stabilizer (SmartCube probability) / PS: anti-psychotic (SmartCube probability) / SD: sedative hypnotic (SmartCube probability) / UN: uncharacterized CNS activity (SmartCube probability): mice, i.p. 15 min before test, most efficacious dose(s) of 3 doses
How it was run: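 Compounds in NMP/PEG/propylene glycol given i.p. 15 min before automated video-based behavioral testing, at 3 doses; behavioral signature compared with a reference-compound database to give probability per drug class, reported at most efficacious dose. MED = dose (mpk) giving ≥50% total activity; doses typically 0.3–30 mpk.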

Male C57Bl/6J mice = test: Amphetamine-induced hyperlocomotion assay; conditions: AMPH 4 mg/kg ip; stimulant-induced hyperactivity
Description: Amphetamine-Induced Hyperlocomotion Assay
Amphetamine (AMPH) is frequently used to induce or mimic a manic-like state. The antimanic-like effects of test compounds were evaluated in male C57Bl/6J mice. Mice were acclimatized to the experimental room for at least 1 hour prior to testing. The mice (n=10 per group) were administered vehicle or test compound and placed in the open field (OF) chambers for 30 minutes of baseline activity measurement. The mice were then injected with either water or AMPH (4 mg/kg, ip) and placed back in the OF chambers for a 60-minute testing session during which, the effects of test compounds on stimulant-induced hyperactivity behaviors (total distance traveled, rearing and stereotypy) were measured. Data were analyzed by analysis of variance (ANOVA) followed by post-hoc comparisons with Fisher Tests when appropriate.

[1] = MED = dose having 50% or more total activity in SmartCube

SMILES | TST: efficacious dose (Adult male AJ mice) | minimal effective dose (mice; [1]) | AD: ADHD (SmartCube probability) (mice) | AG: analgesic (SmartCube probability) (mice) | AX: anxiolytic (SmartCube probability) (mice) | CE: cognitive enhancer (SmartCube probability) (mice) | DP: anti-depressant (SmartCube probability) (mice) | MS: mood stabilizer (SmartCube probability) (mice) | PS: anti-psychotic (SmartCube probability) (mice) | SD: sedative hypnotic (SmartCube probability) (mice) | UN: uncharacterized CNS activity (SmartCube probability) (mice) | AMPH: efficacious dose (Male C57Bl/6J mice) | minimal effective dose (mice) | POTENCY (minimal effective dose, MED) (mice; [1])
CNC[C@@H]1OCCc2c(F)cccc21 [Example 14, (R)-1-(5-fluoroisochroman-1-yl)-N-methylmethanamine] | + (+ = 10-30 mg/kg) | < 3 mg/kg | + (LOQ≤ + <5%) | ++ (5%≤ ++ <25%) | ++ (5%≤ ++ <25%) | ++ (5%≤ ++ <25%) | ++++ (50%≤ ++++) | ++ (5%≤ ++ <25%) | ++ (5%≤ ++ <25%) | ++ (5%≤ ++ <25%) | +++ (25%≤ +++ <50%) | + (+ = 10-30 mg/kg) | – | –
Fc1cccc2c1[C@H](CNC1CCC1)OCC2 [Example 97, (R)-N-((8-fluoroisochroman-1-yl)methyl)cyclobutanamine] | – | – | ++ (5%≤ ++ <25%) | + (LOQ≤ + <5%) | ++ (5%≤ ++ <25%) | + (LOQ≤ + <5%) | +++ (25%≤ +++ <50%) | + (LOQ≤ + <5%) | ++ (5%≤ ++ <25%) | + (LOQ≤ + <5%) | +++ (25%≤ +++ <50%) | – | 3 to 10 mg/kg | –
CNC[C@H]1OC[C@@H](O)c2cccc(F)c21 [Example 98, (1S,4S)-8-fluoro-1-((methylamino)methyl)isochroman-4-ol] | – | > 30 mg/kg | + (LOQ≤ + <5%) | + (LOQ≤ + <5%) | + (LOQ≤ + <5%) | + (LOQ≤ + <5%) | + (LOQ≤ + <5%) | + (LOQ≤ + <5%) | + (LOQ≤ + <5%) | + (LOQ≤ + <5%) | + (LOQ≤ + <5%) | – | – | –
CNC[C@@H]1OC[C@H](O)c2cccc(F)c21 [Example 99, (1R,4R)-8-fluoro-1-((methylamino)methyl)isochroman-4-ol] | – | 10 to 30 mg/kg | + (LOQ≤ + <5%) | + (LOQ≤ + <5%) | ++ (5%≤ ++ <25%) | + (LOQ≤ + <5%) | + (LOQ≤ + <5%) | + (LOQ≤ + <5%) | ++ (5%≤ ++ <25%) | ++ (5%≤ ++ <25%) | +++ (25%≤ +++ <50%) | – | – | –
CNC[C@@H]1OCCc2ccc3c(c21)OC(F)(F)O3 [Example 101, (R)-1-(2,2-difluoro-6,9-dihydro-7H-[1,3]dioxolo[4,5-h]isochromen-9-yl)-N-methylmethanamine] | – | 3 to 10 mg/kg | + (LOQ≤ + <5%) | +++ (25%≤ +++ <50%) | ++ (5%≤ ++ <25%) | ++ (5%≤ ++ <25%) | + (LOQ≤ + <5%) | + (LOQ≤ + <5%) | ++ (5%≤ ++ <25%) | + (LOQ≤ + <5%) | + (LOQ≤ + <5%) | – | – | –
CNC[C@H]1OCCc2ccc3c(c21)OC(F)(F)O3 [Example 102, (S)-1-(2,2-difluoro-6,9-dihydro-7H-[1,3]dioxolo[4,5-h]isochromen-9-yl)-N-methylmethanamine] | – | 10 to 30 mg/kg | + (LOQ≤ + <5%) | ++ (5%≤ ++ <25%) | ++ (5%≤ ++ <25%) | + (LOQ≤ + <5%) | ++ (5%≤ ++ <25%) | + (LOQ≤ + <5%) | + (LOQ≤ + <5%) | + (LOQ≤ + <5%) | +++ (25%≤ +++ <50%) | – | – | –
CNC[C@@H]1OCCc2ccc3c(c21)OCC3 [Example 105, (R)-N-methyl-1-(2,3,6,9-tetrahydro-7H-furo[3,2-h]isochromen-9-yl)methanamine] | – | < 3 mg/kg | + (LOQ≤ + <5%) | + (LOQ≤ + <5%) | ++ (5%≤ ++ <25%) | + (LOQ≤ + <5%) | ++ (5%≤ ++ <25%) | + (LOQ≤ + <5%) | ++ (5%≤ ++ <25%) | +++ (25%≤ +++ <50%) | + (LOQ≤ + <5%) | – | – | –
CNC[C@H]1OCCc2ccc3c(c21)OCC3 [Example 106, (S)-N-methyl-1-(2,3,6,9-tetrahydro-7H-furo[3,2-h]isochromen-9-yl)methanamine] | – | 10 to 30 mg/kg | + (LOQ≤ + <5%) | + (LOQ≤ + <5%) | ++ (5%≤ ++ <25%) | +++ (25%≤ +++ <50%) | ++ (5%≤ ++ <25%) | + (LOQ≤ + <5%) | ++ (5%≤ ++ <25%) | ++ (5%≤ ++ <25%) | + (LOQ≤ + <5%) | – | – | –
CNC[C@@H]1OCCc2ccc3c(c21)CCO3 [Example 107, (R)-N-methyl-1-(3,4,8,9-tetrahydro-1H-furo[2,3-h]isochromen-1-yl)methanamine] | – | 3 to 10 mg/kg | + (LOQ≤ + <5%) | + (LOQ≤ + <5%) | ++ (5%≤ ++ <25%) | + (LOQ≤ + <5%) | ++ (5%≤ ++ <25%) | + (LOQ≤ + <5%) | ++ (5%≤ ++ <25%) | ++ (5%≤ ++ <25%) | +++ (25%≤ +++ <50%) | – | – | –
CNC[C@H]1OCCc2ccc3c(c21)CCO3 [Example 108, (S)-N-methyl-1-(3,4,8,9-tetrahydro-1H-furo[2,3-h]isochromen-1-yl)methanamine] | – | 3 to 10 mg/kg | + (LOQ≤ + <5%) | + (LOQ≤ + <5%) | + (LOQ≤ + <5%) | + (LOQ≤ + <5%) | ++ (5%≤ ++ <25%) | + (LOQ≤ + <5%) | ++ (5%≤ ++ <25%) | + (LOQ≤ + <5%) | ++++ (50%≤ ++++) | – | – | –
CNC[C@@H]1OCCc2ccc3c(c21)COC3 [Example 109] | – | – | + (LOQ≤ + <5%) | + (LOQ≤ + <5%) | ++ (5%≤ ++ <25%) | + (LOQ≤ + <5%) | ++ (5%≤ ++ <25%) | + (LOQ≤ + <5%) | ++++ (50%≤ ++++) | ++ (5%≤ ++ <25%) | ++ (5%≤ ++ <25%) | – | – | B (>3 to 10 mpk)
